# Assay results published in patent US12102620B2, “Combination therapy for the treatment of mastocytosis” (Deciphera Pharmaceuticals, LLC, priority 2018, dated 2024).
# “Also recorded” adds a separate entry of the source.
# Assays:
# Assay type in all cases: cell-based
# [1] = tested on: EV-transfected HMC1.2 mast cells; experiment: Colony outgrowth after drug removal, empty vector transfected cells; settings: all concentrations, 5 days after drug removal
# Text: (§1) Drug treatments were removed and colony outgrowth of viable cells was monitored after 5 or 13 additional days.
# (§2) Drug treatments were removed and colony outgrowth of viable cells was monitored after 5 or 10 additional days.
# [2] = tested on: N-ras G12D-transfected HMC1.2 cells; experiment: Colony outgrowth after drug removal, N-ras G12D transfected cells; settings: all concentrations, 5 days after drug removal
# Text: as §1, §2
# [3] = tested on: HMC1.2 KIT V560G/D816V mast cell line; experiment: Cell proliferation, HMC1.2 KIT V560G/D816V mast cell line; settings: 72 h, read-out: IC50, inhibition of cell proliferation
# Protocol: (§3) Assays were conducted in 96 well plates with 10,000 cells seeded per well.
# [4] = tested on: HMC1.1 KIT V560G mast cell line; experiment: Cell proliferation, HMC1.1 KIT V560G mast cell line; settings: 72 h, read-out: IC50, inhibition of cell proliferation
# Protocol: as §3
# [5] = tested on: HMC1.2 mast cells (KIT D816V); experiment: Colony outgrowth in soft agar after drug removal; settings: all concentrations, 10 days treatment, 5 days after drug removal
# Text: Drug treatments were removed and colony outgrowth of viable cells was monitored after 5 additional days.
SMILES,"colony outgrowth, single agent [1]","colony outgrowth, single agent [2]",IC50 [3],IC50 [4],"colony outgrowth, single agent [5]"
"CCn1c(=O)c(-c2cc(NC(=O)Nc3ccccc3)c(F)cc2Br)cc2cnc(NC)cc21 [Compound A, 1-[4-bromo-5-[1-ethyl-7-(methylamino)-2-oxo-1,2-dihydro-1,6-naphthyridin-3-yl]-2-fluorophenyl]-3-phenylurea]",colony outgrowth at all concentrations; also recorded: eradication was not observed,colony outgrowth at all concentrations; also recorded: eradication was not observed,–,–,–
"CCn1c(=O)c(-c2cc(NC(=O)Nc3ccccc3)c(F)cc2Br)cc2cnc(N)cc21 [Compound B, 1-(5-(7-amino-l-ethyl-2-oxo-1,2-dihydro-1,6-naphthyridin-3-yl)-4-bromo-2-fluorophenyl)-3-phenylurea]",–,–,61 nM,2.3 nM,colony outgrowth at all concentrations; also recorded: eradication was not observed
Cn1cnc2c(F)c(Nc3ccc(Br)cc3F)c(C(=O)NOCCO)cc21 [binimetinib],–,–,–,–,colony outgrowth at all concentrations; also recorded: eradication was not observed
"O=C(c1ccc(F)c(F)c1Nc1ccc(I)cc1F)N1CC(O)([C@@H]2CCCCN2)C1 [cobimetinib, reference compound]",colony outgrowth at all concentrations; also recorded: eradication was not observed,colony outgrowth at all concentrations; also recorded: eradication was not observed,–,–,colony outgrowth at all concentrations
